viability, IC50 and CI data for two compounds are collected here from patent US20200405752A1, “ANTITUMOR AGENT, ANTITUMOR EFFECT ENHANCER, AND ANTITUMOR KIT” (FUJIFILM Corporation, priority 2018, published 2020).

Where only a bound is given, the exact number is not on record here.

In this assay the test system is human cholangiocarcinoma cell line TFK-1 (spheroid culture). The assay can be described thus: Cell viability (CellTiter Glo) of TFK-1 in spheroid culture in combination with cisplatin. The assay is classed as cell-based. The settings on record: for viability at 0.001 µM / viability at 0.003 µM / viability at 0.01 µM / viability at 0.03 µM / viability at 0.1 µM / viability at 0.3 µM / viability at 1 µM / viability at 3 µM / viability at 10 µM / IC50: Homo sapiens; for viability at 0.001 µM / viability at 0.003 µM / viability at 0.01 µM / viability at 0.03 µM / viability at 0.1 µM / viability at 0.3 µM / viability at 1 µM / viability at 3 µM / viability at 10 µM: 72 h, TFK-1 spheroid, with cisplatin 10 μmol/L, 3 days; for viability at 0.001 µM: test substance 1.0 nM; for viability at 0.003 µM: test substance 3.0 nM; for viability at 0.01 µM: test substance 10.0 nM; for viability at 0.03 µM: test substance 30.0 nM; for viability at 0.1 µM: test substance 100.0 nM; for viability at 0.3 µM: test substance 300.0 nM; for viability at 1 µM: test substance 1000.0 nM; for viability at 3 µM: test substance 3000.0 nM; for viability at 10 µM: test substance 10000.0 nM; for IC50 / CI: TFK-1 spheroid culture; for CI: combination with cisplatin. The source says:
On the combinational effect of the embodiment of the invention, the results of evaluation using a combination index (CI) which is a quantitative index of the combinational effect are shown. The CI can be calculated by the following equation according to Cancer Research, 2010, Vol. 70, pp. 440 to 446.
That is, in a case where the drugs to be used in combination are drug 1 and drug 2, the CI at a certain drug concentration is
CI={(cell viability in case of using drug 1 and drug 2 in combination)/100}/{[(cell viability in case of using drug 1)/100]×[(cell viability in case of using drug 2)/100]}
Evaluation of Antitumor Activity Against Cholangiocarcinoma Cell Line TFK-1 by Combined Use of Cisplatin in Spheroid Culture
Gemcitabine, cisplatin, and methanesulfonate of Compound A were used as test substances.
Gemcitabine hydrochloride (manufactured by Plantex Co., Ltd.) dissolved in dimethyl sulfoxide (DMSO) was used as gemcitabine. Cisplatin (Cat. #039-20091, manufactured by Wako Pure Chemical Industries, Ltd.) dissolved in DMSO was used as cisplatin.
Human cholangiocarcinoma cell line TFK-1 cells were subcultured in RPMI-1640 medium supplemented with 10% serum (Cat. #10437-028, manufactured by Thermo Fisher Scientific Inc.). During this test, all cell cultures were carried out in a CO2 incubator (set to 37° C. and 5% CO2, saturated with water vapor). The culture was diluted with 10% serum-supplemented medium to a cell density of 5000 cells/well/100 μL, and seeded on an Ultra-Low Attachment 96-well plate (Cat. #7007, manufactured by Corning Incorporated). The cells were cultured for 4 days to form spheroids.
The methanesulfonate of Compound A and gemcitabine were dissolved in DMSO to prepare 10 mmol/L DMSO solutions thereof. The thus-prepared DMSO solutions were diluted sequentially with DMSO to prepare DMSO solutions having a final treatment concentration of 1000-fold dilution. Cisplatin was dissolved in DMSO to prepare a 100 mmol/L DMSO solution. The thus-prepared DMSO solution of cisplatin was diluted with DMSO to prepare a DMSO solution having a final treatment concentration of 5000-fold dilution. Further, the DMSO solution of cisplatin was diluted with 10% serum-supplemented medium to prepare a cisplatin-containing medium having a final treatment concentration of 10-fold dilution. The DMSO diluted solutions of Compound A and gemcitabine were diluted with the cisplatin-containing medium to prepare treatment liquids having a final treatment concentration of 10-fold dilution. Compound A and gemcitabine were used with a maximum concentration of 10 μmol/L at a common ratio of 1/3 and 9 concentrations in combination with cisplatin (10 μmol/L).
10 μL of Compound A or gemcitabine diluted with the cisplatin-containing medium was added to each well. In addition, a group in which only a solvent containing no drug was added to wells in which cells were seeded (positive control), and a group in which only a solvent containing no drug was added to wells containing only a medium (negative control) were provided. All groups were set to n=3 well.
The cells were cultured for 3 days after the addition of the drug, and the cell viability was evaluated using a CellTiter Glo (registered trademark) Reagent (Cat. #G7570, manufactured by Promega Corporation) with the intracellular ATP level as an index. The concentration that inhibits cell viability by 50% (IC50 value) was calculated using XLFit software Ver.3 (registered trademark, manufactured by CTC Laboratory Systems Corporation).
The cell viability of each well was determined with the luminescence signal level of the negative control being 0% cell viability and the luminescence signal level of the positive control being 100% cell viability. The average value and standard deviation of the cell viability of each treatment group were calculated to prepare Table 9.

The viability is a read-out of living cells in per cent, often relative to untreated cells. As usually defined, the IC50 is the concentration that gives 50% inhibition.

On to `Nc1ccn([C@@H]2O[C@H](CO)[C@@H](O)C2(F)F)c(=O)n1` [Gemcitabine], for which the viability at 0.001 µM turned out to be 97%, the viability at 0.003 µM stood at 97%, the viability at 0.01 µM was 97% and the viability at 0.03 µM amounted to 89%. Besides, the viability at 0.1 µM turned out to be 90%, the viability at 0.3 µM was found to be 83%, the viability at 1 µM amounted to 83% and the viability at 3 µM was found to be 77%. For the same compound, the viability at 10 µM is 66% and the CI was found to be 0.78. Also, the concentration for half-maximal inhibition (IC50) (in combination with cisplatin (10 μmol/L)) is not below 10000 nM.

Regarding `Nc1ccn([C@@H]2S[C@H](CO)[C@@H](O)[C@@H]2F)c(=O)n1` [Compound A, 1-(2-deoxy-2-fluoro-4-thio-β-D-arabinofuranosyl)cytosine], the viability at 0.001 µM worked out at 97%, the viability at 0.003 µM came to 101%, the viability at 0.01 µM amounted to 96% and the viability at 0.03 µM turned out to be 91%. Moreover, the viability at 0.1 µM was determined as 90%, the viability at 0.3 µM worked out at 65%, the viability at 1 µM came out at 23% and the viability at 3 µM came to 14%. The viability at 10 µM was 9% and the CI was determined as 0.13. Further, under “in combination with cisplatin (5 μmol/L)”, the IC50 turned out to be 469 nM.
